Laboratory results published in patent US7976878B2, “Use of winter savory (Satureja montana) or the extracts thereof for the preparation of medicaments for the treatment of the premature ejaculation” (Indena S.p.A., priority 2004, dated 2011).
“Also recorded” adds a separate entry of the source.

System: Sprague-Dawley rats
Assay: Copulatory activity (sexual behaviour) test in male rats with very short ejaculation latency
Format: in vivo, rat
Details: for ejaculation latency (EL) / intromission frequency (IF) / intromission latency (IL) / mount frequency (MF) / mount latency (ML) / postejaculatory interval (PEI): 45 min before test, mean ± SEM (n = 8-10)
Protocol: The resulting extract was solubilised in Tween 80 (10%) and water and administered to test animals through a gastric probe, in a volume of 5 ml/kg, at different doses, 45 minutes before the in vivo test. Sprague-Dawley rats were used, both males (weighing approx. 220 g) and females (weighing approx. 160 g), from Harlan Italy (Udine, Italy). The animals were housed under controlled temperature and humidity conditions (22±1° C., 60% humidity), with 12 hours inverted light-darkness cycle, with lights on at 7 a.m. Females were ovariectomized and subcutaneously injected with estradiol valerate (500 μg) and progesterone (2 mg) 48 hours after, to induce estrus. Male rats with very short ejaculation latency time were chosen through starting screening consisting of 7 pre-tests [A. Ågmo, Male rat sexual behavior, Brain Research Protocols 1: 203-209, 1997]. The resulting extract according to Example II or rosmarinic acid were solubilised in Tween 80 (10%) and water and administered to animals, by gastric probe, in a volume of 5 ml/kg, at different doses, 45 minutes before carrying out all the in vivo tests. Sexual behaviour was evaluated under quite conditions, with feeble red light, according to the standard procedure [A. Ågmo, Male rat sexual behavior, Brain Research Protocols 1: 203-209, 1997]. The main parameters recorded during the test were: 1) mount latency (ML); 2) intromission latency (IL); 3) ejaculation latency (EL); 4) postejaculatory interval (PEI); 5) mount frequency (MF); 6) intromission frequency (IF).

[1] = rosmarinic acid 10 mg/kg by gastric probe
[2] = rosmarinic acid 20 mg/kg by gastric probe

SMILES: O=C(/C=C/c1ccc(O)c(O)c1)O[C@H](Cc1ccc(O)c(O)c1)C(=O)O [Rosmarinic acid, rosmarinic acid]
- ejaculation latency (EL) [1]: 1282.2 ± 90.4 s
- intromission frequency (IF) [1]: 19.8 ± 1.2 n°
- intromission latency (IL) [1]: 393.9 ± 89.8 s
- mount frequency (MF) [1]: 1.6 ± 0.3 n°
- mount latency (ML) [1]: 382.4 ± 93.6 s
- postejaculatory interval (PEI) [1]: 548.5 ± 45.5 s
- ejaculation latency (EL) [2]: 1493.1 ± 81.9 s
- intromission frequency (IF) [2]: 27.3 ± 0.7 n°
- intromission latency (IL) [2]: 408.4 ± 48.6 s
- mount frequency (MF) [2]: 1.1 ± 0.1 n°
- mount latency (ML) [2]: 425.8 ± 83.2 s
- postejaculatory interval (PEI) [2]: 602.2 ± 102.4 s
- activity on copulatory activity / ejaculation latency compared with the extract (in words) (rosmarinic acid, doses of 10 and 20 mg/kg, same experimental conditions): equivalent activity to that of the extract; also recorded: same results
